Key:
Type in all cases: cell-based
H1650 cells [1] = assay: In vitro activity in H1650 cell line (3D, CTG 120h), Example 12; conditions: Homo sapiens, NCI-H1650, 120 h, H1650 3D
Method: (§1) H1650 cells were cultivated in RPMI supplemented with 10% heat inactivated fetal bovine serum, penicillin (100 IU/ml), streptomycin (100 μg/ml) and L-glutamine (2 mM). Cells were cultured at 37° C. in a humidified atmosphere containing 5% CO2. Cells were seeded in 96 microwell round bottom plates (96 microwell low attachment plates, Costar reference 7007; 75 μL/well of 125000 cells/mL) and exposed to the mAbs or ADCs for 120h (serially diluted; 9 concentrations each, duplicates). Effects of mAbs or ADCs on cell viability were assessed after 5 days of incubation at 37° C./5% CO2 by quantification of cellular ATP levels using CellTiter-Glo reagent (Promega Ref: G7571) at 75 μL reagent/well. All the conditions were tested in duplicates. Luminescence was quantified on a multipurpose plate reader. IC50s were calculated using standard four-parametric curve fitting. IC50 is defined as the compound concentration at which the CTG signal is reduced to 50% of that measured for the control. Two independent experiments were performed (N1 and N2).
(§2) Plating Conditions: EBC-1: 75 μL/well of 60000 cells/mL for 120h in 96-well plate SNU-5: 75 μL/well of 60000 cells/mL for 120h in 96-well plate H1650 (ATOC): 75 μL/well of 125000 cells/mL for 120h in 96 microwell round bottom plates

EBC-1 [2] = assay: In vitro activity in EBC-1 cell line (CTG 120h), Example 12; conditions: Homo sapiens, EBC-1, 120 h, EBC1, CTG 120 h
Method: (§3) EBC-1 and SNU-5 cell lines were cultured in the media described above at 37° C. in a humidified atmosphere containing 5% CO2. The cells were seeded in 96 well clear bottom plates (96 well clear-bottom, white, Corning reference 3903) and exposed to the mAbs or ADCs for 120h (serially diluted; 9 concentrations each, triplicates). Effects of mAbs or ADCs on cell viability were assessed after 5 days of incubation at 37° C./5% CO2 by quantification of cellular ATP levels using CellTiter-Glo reagent (Promega Ref: G7571) at 75 μL reagent/well. All the conditions were tested in triplicates. Luminescence was quantified on a multipurpose plate reader. IC50s were calculated using standard four-parametric curve fitting. IC50 is defined as the compound concentration at which the CTG signal is reduced to 50% of that measured for the control. Two independent experiments were performed (N1 and N2).
as §2

EBC-1 [3] = assay: In vitro activity in EBC-1 cell line (CTG 120h), Example 6; conditions: Homo sapiens, EBC-1, 120 h, EBC-1, CTG 120 h
Method: as §3, with “Cell” for “EBC-1 and SNU-5 cell”, “Cells” for “The cells”, “N2). IC50 data of each experiment and the arithmetic mean is shown in Table 14 for all the antibodies and ADCs tested.” for “N2).”

H1650 cells [4] = assay: In vitro activity in H1650 cell line (3D, CTG 120h), Example 6; conditions: Homo sapiens, NCI-H1650, 120 h, H1650 3D
Method: as §1, with “CellTiterGlo” for “CellTiter-Glo reagent (Promega Ref: G7571)”, “N2). IC50 data of each experiment and the arithmetic mean is shown in Table 14 for all the antibodies and ADCs tested. NT=not tested; ND=not determined.” for “N2).”

lung cancer cell lines = assay: Lung cancer cell line panel of Example 7, statements in text (CTG 120h); conditions: lung cancer cell lines of Table 15, single agents
Method: Cell lines were cultured in the media described above at 37° C. in a humidified atmosphere containing 5% CO2. Cells were seeded in 96 well clear bottom plates (96 well clear-bottom, white, Corning reference 3903) and exposed to the mAbs, mAbs mixture, ADCs or ADCs mixture as single agents or in 1:1 combination with Paclitaxel. When in 1:1 combination, both the combining partner (Paclitaxel) and the mAb, mAb mixture, ADC or ADC mixture were serially diluted (9 concentrations each, triplicates). Effect on cell viability was assessed after 5 days of incubation at 37° C./5% CO2 by quantification of cellular ATP levels using CellTiter-Glo reagent (Promega Ref: G7571) at 75 μL reagent/well. All the conditions were tested in triplicates. Luminescence was quantified on a multipurpose plate reader. IC50s were calculated using standard four-parametric curve fitting. IC50 is defined as the compound concentration at which the CTG signal is reduced to 50% of that measured for the control. Two independent experiments were performed (N1 and N2).

IC50 (H1650 cells [1]; N1) [nM] | IC50 (H1650 cells [1]; N2) [nM] | IC50 (H1650 cells [1]; mean) [nM] | IC50 (EBC-1 [2]; Mean) [nM] | IC50 (EBC-1 [2]; N1) [nM] | IC50 (EBC-1 [2]; N2) [nM] | IC50 (EBC-1 [3]; mean) [nM] | IC50 (EBC-1 [3]; n = 1) [nM] | IC50 (EBC-1 [3]; n = 2) [nM] | IC50 (H1650 cells [4]; mean) [nM] | IC50 (H1650 cells [4]; n = 1) [nM] | IC50 (H1650 cells [4]; n = 2) [nM] | SMILES | effect on the viability (lung cancer cell lines)
8.28 | 5.9 | 7.09 | 12.6 | 12.8 | 12.4 | 43.4 | 20.8 | 65.9 | 1.57 | 1.47 | 1.66 | Cc1c(Nc2nc3ccccc3s2)nnc2c1CCCN2c1ccc(-c2cnn(C[C@]34C[C@]5(C)C[C@](C)(C3)C[C@@](OCCNCCCO)(C5)C4)c2C)c(C(=O)O)n1 [P25, 6-[3-(1,3-benzothiazol-2-ylamino)-4-methyl-6,7-dihydro-5H-pyrido[2,3-c]pyridazin-8-yl]-3-[1-[[3-[2-(3-hydroxypropylamino)ethoxy]-5,7-dimethyl-1-adamantyl]methyl]-5-methyl-pyrazol-4-yl]pyridine-2-carboxylic acid] | –
– | – | – | – | – | – | – | – | – | – | – | – | CC(=O)O[C@H]1C(=O)[C@@]2(C)[C@H]([C@H](OC(=O)c3ccccc3)[C@]3(O)C[C@H](OC(=O)[C@H](O)[C@@H](NC(=O)c4ccccc4)c4ccccc4)C(C)=C1C3(C)C)[C@]1(OC(C)=O)CO[C@@H]1C[C@@H]2O [Paclitaxel, paclitaxel] | induced dose dependent decrease in cell viability (with measurable IC50) in all cell lines except NCI-H1838

Reference: patent US20250339547A1, “MET BCL-XL INHIBITOR ANTIBODY-DRUG CONJUGATES AND METHODS OF USE THEREOF” (Novartis AG, priority 2022, published 2025)
